The nature of data set [1]: Nonspecific cytotoxic effects / in vitro cytotoxicity. It is filed as cell-based. The note with it: human, HEK293T cells.
For another data set, the target named is SARS-CoV-2 3CLpro (Severe acute respiratory syndrome coronavirus 2, UniProt P0DTD1). Kind of data set: biochemical. In kind it is biochemical.
A further data set addresses MERS-CoV 3CLpro (Middle East respiratory syndrome-related coronavirus, UniProt K9N7C7). As to the kind of experiment: biochemical.
The next data set relates to PRRSV. As to the kind of experiment: Inhibition of replication of PRRSV. It is filed as cell-based, porcine respiratory and reproductive syndrome virus (PRRSV).

Results on three compounds are retold here after PMC8673480 (Journal of medicinal chemistry, 2021).

Chain of MERS-CoV 3CLpro (K9N7C7 3248-3553 limits assumed): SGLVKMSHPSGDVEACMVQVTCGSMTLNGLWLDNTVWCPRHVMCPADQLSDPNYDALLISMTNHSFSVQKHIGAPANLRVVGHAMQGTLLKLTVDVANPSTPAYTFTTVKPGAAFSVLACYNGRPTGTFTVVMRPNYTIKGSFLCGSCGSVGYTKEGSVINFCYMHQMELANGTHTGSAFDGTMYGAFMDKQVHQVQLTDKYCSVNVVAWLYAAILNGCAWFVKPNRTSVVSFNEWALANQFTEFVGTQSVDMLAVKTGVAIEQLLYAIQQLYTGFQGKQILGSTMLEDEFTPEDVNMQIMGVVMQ

One may read the CC50 as the concentration giving 50% cytotoxicity. A high value points to better tolerance by the cells. What is called IC50 is the concentration needed to halve the response being measured. The low end stands for inhibition by little substance, the high end for a need for much substance. On to `CCCC1CCC(COC(=O)NC(CC(C)C)C(=O)NC(C=O)CC2CCNC2=O)CC1` [Compound 8b, ((1r,4R)-4-Propylcyclohexyl) methyl ((2S)-4-methyl-1-oxo-1-(((2S)-1-oxo-3-(2-oxopyrrolidin-3-yl)propan-2-yl)amino)pentan-2-yl) carbamate], for which, in data set [1], the cytotoxic concentration (CC50) at 72 h was found to be 43 ± 9 µM. For the same compound, the IC50 against SARS-CoV-2 3CLpro came out at 0.2 ± 0.03 µM; against MERS-CoV 3CLpro, 0.06 ± 0.01 µM.
As to `CC(C)C[C@H](NC(=O)OCc1ccccc1)C(=O)N[C@@H](C[C@@H]1CCNC1=O)C(O)S(=O)(=O)[O-].[Na+]` (some centres unmarked) [GC376], the “inhibition of the replication of PRRSV” value in the data set with PRRSV is on record as “none of them resulted in the reduction of viral replication”.
As for `CC(C)C[C@H](NC(=O)OC(C)(C)C1CCC(F)(F)CC1)C(=O)N[C@@H](C[C@@H]1CCNC1=O)C(O)S(=O)(=O)[O-].[Na+]` (stereo partly drawn) [Compound 13c, Sodium (2S)-2-((S)-2-((((2-(4,4-difluorocyclohexyl)propan-2-yl)oxy)carbonyl)amino)-4-methylpentanamido)-1-hydroxy-3-((S)-2-oxopyrrolidin-3-yl)propane-1-sulfonate], at SARS-CoV-2 3CLpro, the “IC50 higher than those of 12b and 14c” value was ~ 4 fold.
